Data set [1] concerns the target T1, Prostaglandin G/H synthase 1 (Rattus norvegicus, UniProt Q63921).
T1 sequence (Q63921 whole entry): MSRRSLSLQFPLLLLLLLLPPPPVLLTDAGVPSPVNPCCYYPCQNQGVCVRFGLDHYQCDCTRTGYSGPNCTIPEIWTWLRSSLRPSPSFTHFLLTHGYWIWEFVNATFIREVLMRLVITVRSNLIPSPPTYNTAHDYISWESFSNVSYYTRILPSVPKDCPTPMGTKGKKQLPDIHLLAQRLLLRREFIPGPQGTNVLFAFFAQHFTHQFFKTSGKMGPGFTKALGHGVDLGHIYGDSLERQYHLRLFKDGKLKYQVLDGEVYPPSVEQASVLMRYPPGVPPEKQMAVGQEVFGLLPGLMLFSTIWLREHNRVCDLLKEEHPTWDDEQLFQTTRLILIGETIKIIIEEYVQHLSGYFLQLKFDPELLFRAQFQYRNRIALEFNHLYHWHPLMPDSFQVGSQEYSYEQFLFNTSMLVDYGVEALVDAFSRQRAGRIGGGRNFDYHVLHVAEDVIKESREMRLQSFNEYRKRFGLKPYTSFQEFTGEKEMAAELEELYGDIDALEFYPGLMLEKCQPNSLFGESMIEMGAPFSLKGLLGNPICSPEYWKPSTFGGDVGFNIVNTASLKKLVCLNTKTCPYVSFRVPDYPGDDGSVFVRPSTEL
The data set is described as follows: In vitro inhibition of Prostaglandin G/H synthase 1.

In data set [2] the target is T2, Prostaglandin G/H synthase 2 (Rattus norvegicus, UniProt P35355).
T2 sequence (P35355 whole entry): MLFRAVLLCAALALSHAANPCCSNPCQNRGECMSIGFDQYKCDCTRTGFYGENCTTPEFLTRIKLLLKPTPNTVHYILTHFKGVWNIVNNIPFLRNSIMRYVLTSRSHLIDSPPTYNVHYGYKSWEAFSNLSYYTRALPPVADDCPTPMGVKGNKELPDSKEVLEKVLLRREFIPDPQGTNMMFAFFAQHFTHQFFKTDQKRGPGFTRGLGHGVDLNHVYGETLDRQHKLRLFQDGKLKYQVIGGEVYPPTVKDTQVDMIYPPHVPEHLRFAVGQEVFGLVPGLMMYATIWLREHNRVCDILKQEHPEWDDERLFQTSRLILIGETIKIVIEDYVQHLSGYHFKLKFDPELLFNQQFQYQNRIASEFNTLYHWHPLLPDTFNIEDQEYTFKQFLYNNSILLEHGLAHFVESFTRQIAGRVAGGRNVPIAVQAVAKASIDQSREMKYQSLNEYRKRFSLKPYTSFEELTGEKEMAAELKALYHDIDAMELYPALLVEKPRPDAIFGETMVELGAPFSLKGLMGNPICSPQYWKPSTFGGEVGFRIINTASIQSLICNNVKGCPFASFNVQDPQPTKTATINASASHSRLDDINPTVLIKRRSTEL
In words: In vitro inhibition of Prostaglandin G/H synthase 2.

The species entered for data set [3] is Rattus norvegicus. The data set is described as follows: Clearance in rat plasma. The class given is functional, organism-based.
Data set [4] relates to Rattus norvegicus. The data set is described as follows: Compound was evaluated in vivo for its activity in the rat paw edema assay. Format: functional.
Data set [5] is described as follows: Cmax in rat plasma. The class given is ADME, organism-based.
Data set [6] deals with Rattus norvegicus. The data set is described as follows: Compound was evaluated in vivo for its activity in the rat pyresis assay. Format: functional.

We go through four compounds from ChEMBL document CHEMBL1129002, “Synthesis and biological evaluation of both enantiomers of L-761,000 as inhibitors of cyclooxygenase 1 and 2” (Bioorg Med Chem Lett, 1996).

Molecules are shown by their SMILES.

For the compound `COc1ccc2c(c1)c(CC(C)CC(=O)O)c(C)n2Cc1ccc(Br)cc1` (configuration not stated), the IC50 is above 10000 nM in data set [1] and 50 nM in data set [2]. The CL (mL.min-1.kg-1) in data set [3] stood at 5.7. Moreover, in data set [4], the ED30 came out at 0.4 mg/kg.

With `COc1ccc2c(c1)c(C[C@H](C)CC(=O)O)c(C)n2Cc1ccc(Br)cc1`, the results for the IC50 in data set [1] and in data set [2] were above 10000 nM and 20 nM, respectively. This compound also came in with a CL (mL.min-1.kg-1) in data set [3] of 21. The concentration in data set [5] peaked (Cmax) at 14.4 µM. The compound also had an ED30 in data set [4] above 3 mg/kg.

In data set [4], `COc1ccc2c(c1)c(CC(=O)O)c(C)n2C(=O)c1ccc(Cl)cc1` [INDOMETHACIN] returned an ED30 of 0.4 mg/kg. For the same compound, the 50% effective dose (ED50) in data set [6] worked out at 1 mg/kg.

For `COc1ccc2c(c1)c(C[C@@H](C)CC(=O)O)c(C)n2Cc1ccc(Br)cc1`, the half-maximal inhibitory concentration (IC50) in data set [1] is above 10000 nM; in data set [2], 60 nM. In addition, the CL (mL.min-1.kg-1) in data set [3] is 2.8. Moreover, in data set [5], the Cmax was 24.3 µM. Moreover, in data set [4], the ED30 worked out at 0.4 mg/kg. This compound also returned an ED50 in data set [6] of 1.9 mg/kg.

Broadly, the IC50 is the midpoint of a concentration-inhibition curve. Read a low IC50 as inhibition by little substance. For orientation: Cmax means the maximum level reached in the sampled fluid or tissue. In general, ED50 refers to the midpoint of the dose-response relation.
